Reference: patent publication US10738061B2, “Inhibitors of RAD52 recombination protein and methods using same” (Drexel University, priority 2015, dated 2020)

How the values were obtained:
salmon sperm DNA = assay: Acridine orange displacement assay for DNA binding
Description: The selected compounds were tested their abilities to bind DNA to rule out DNA binding as an undesired mechanism of action. The compounds in varied concentrations were added into 30 μl reaction mixtures containing 50 nM acridine orange and 6 μg/ml salmon sperm DNA, 10 mM HEPES, pH 7.5; 1 mM EDTA pH 7.5; 100 mM NaCl in 384-well plates, and the reactions were incubated at room temperature for 20 min followed by fluorescence polarization measurement using an EnVision (Perkin Elmer) equipped with a 480 nm excitation filter and 535 nm S and P emission filters with a D505 FP/D535 dichroic mirror. Mitoxantrone (10 μM) was used as a positive control. The S and P values are processed with the standard fluorescence polarization calculation formula (mP=1000*(S-G*P)/(S+G*P) where G is the G-factor and is approximately 1.

[1] = system: BCR-ABL1-positive BRCA1-deficient 32Dc13 murine hematopoietic cell line that expresses GFP-RAD52; assay: GFP-RAD52 foci formation in response to cisplatin; type: cell-based; settings: compound 2.5 μM
Description: GFP-RAD52 foci formation was measured in BCR-ABL1-positive BRCA1-deficient 32Dc13 murine hematopoietic cell line that expresses GFP-RAD52 (Cramer-Morales et al., 2013, Blood 122, 1293-1304). RAD51 foci formation was measured in parental 32Dc13.
Both cell lines were cultured in IMDM plus 10% FBS. […] After 4 h of incubation, the cells were treated with 3 μg/mL cisplatin for 16 h. Following cisplatin treatment, cytospins were prepared using polylysine coated slides (Thermo Scientific). DNA was counterstained with DAPI. To detect RAD51 foci, cells were stained with an anti-RAD51 antibody (Thermo Scientific), followed by a secondary antibody conjugated with AlexaFluor 594. RAD51 and GFP-RAD52 foci were visualized with an inverted Olympus IX70 fluorescence microscope equipped with a Cooke Sensicam QE camera (The Cooke Co., Auburn Hills, Mich., USA). Images from 25-60 cells/group were processed using SlideBook 3.0 (Intelligent Imaging Innovation).
In response to DNA damage, RAD52 accumulates in the nucleus forming distinct structures known as foci (Essers et al., 2002, EMBO J. 21, 2030-2037; Liu et al., 2000, EMBO Rep 1, 85-90). The foci represent RAD52 complexes with DNA repair intermediates. Inhibitors of RAD52 may decrease RAD52 foci formation by disrupting its interaction with DNA substrates.

[2] = system: BRCA1/2-deficient cell lines; assay: Growth of BRCA1/2-deficient cell lines (summary over tested lines); type: cell-based, Human
Description: (§1) BxPC3 cells were kept in RPMI 1640 (ATCC) media supplemented with 10% FBS (Gibco). Capan-1/BxPC3 Capan-1 cells were kept in IMDM (ATCC) media containing 20% FBS (GIBCO). […] cells were kept in 48.5% RPMI1640 (ATCC), 48.5% MEGM (Clonetics/Lonza, MEGM kit, CC-3150) and 3% FBS (GIBCO) respectively. Cells in log-phase were harvested and 100 μl cell suspensions were replated in a 96-well plate with a final density of 4000 cells/well. After overnight growth, cells were treated with indicated concentrations of compounds. Media containing the invariant concentration of compounds were refreshed every 3 days until cells were finally lysed by 30 μl/well of Promega CellTiter-Glo reagents and read on a Promega GloMax 96 reader on day 10 (9 days exposure).
as §1, with “(Gibco);” for “(Gibco). Capan-1/BxPC3”, “(GIBCO);” for “(GIBCO).”, “exposure). Promega CellTiter-Glo protocol is available on the web: www dot promega dot com/resources/protocols/technical-bulletins/0/celltiter-glo-luminescent-cell-viability-assay-protocol/” for “exposure).”
MDA-MB-436 cells were cultured in RPMI+10% FBS. BRCA-proficient and BRCA-deficient cells were plated on day 0 in triplicate at 5,000 cells/well. […] Cells were counted on day 4 on a hemocytometer, using Trypan Blue exclusion, and immediately were plated in a clonogenic assay at a density of 500 cells/well in a 6 well plate, in RPMI+10% FBS. […]

For `COc1ccc(OC)c(Nc2nc(NCCCO)c3ccccc3n2)c1` [D-G23, 3-((2-((2,5-dimethoxyphenyl)amino)quinazolin-4-yl)amino)propan-1-ol], which DNA binding (salmon sperm DNA) is on record?
The DNA binding was “did not bind DNA”.

And the “fraction of cells with RAD52 foci (>5 foci)” value ([1]; cisplatin-treated, without inhibitor 38.7±10%)?
Its value is 19±0.4%.

What about the “fraction of cisplatin-treated cells without foci” value ([1]; without inhibitor 48.4±6.2%) of the same compound?
The value was 57.6±0.5%.

And the “preferential inhibition of BRCA1/2-deficient cell lines (summary)” value [2]?
Its value is “preferentially inhibited at least two BRCA1/2-deficient cell lines”.
